Assay results taken from EP4768487A1, “FUSED LACTAM RING COMPOUND AND USE THEREOF” (Chengdu Zenitar Biomedical Technology Co., Ltd., priority 2023, dated 2025).

What follows are molecules tested against T1, PARP1 (Homo sapiens, UniProt P09874) (assay: PARP1 enzyme assay (histone-coated plate, chemiluminescence)). Conditions: PARP1 0.02 nM, DNA 0.8 nM, NAD+ 3.5 µM; read-out: PARP-1 IC50.
T1 construct: purchased BPS 80501
Format: biochemical
Procedure: 1.1.1. Buffer preparation: PBST: 1× PBS, 0.05% Tween-20; blocking buffer: 1× PBS, 0.05% Tween-20, 5% BSA; reaction buffer: 50 mM Tris-HCl (pH 7.5), 0.005% Tween-20, 0.01% BSA.
1.1.2. Coating: A 50 ng/mL Histone coating solution was prepared with 1× PBS and then transferred to a 384-well reaction plate at 25 µL/well. The plate was coated at 4 °C overnight.
1.1.3. Washing: After the coating was completed, the coating solution was discarded, and the plate was washed with the PBST solution. The method was as follows: PBST was transferred to the 384-well reaction plate at 50 µL/well, and the plate was left to stand for 5 min. The washing solution was then discarded, and the plate was refilled. The washing step was repeated 3 times. Finally, the reaction plate was patted dry and left for the next step of blocking.
1.1.4. Blocking: The blocking buffer was transferred to the 384-well reaction plate at 50 µL/well, and the plate was left to stand for 1 h.
Washing: After the blocking was completed, the blocking buffer was discarded, and the plate was washed 3 times with the PBST solution according to the method in step 2. Finally, the reaction plate was patted dry.
1.1.5. A 1000-fold solution of a compound was prepared and then transferred at 1 µL/well to a 96-well plate containing 199 µL of the reaction buffer. The mixture was well mixed, and then the well mixed compound solution was transferred to the 384-well reaction plate at 5 µL/well. 1.1.6. A 25/10-fold PARP1-DNA solution was prepared with the reaction buffer and then transferred to the 384-well reaction plate at 10 µL/well. For the negative control wells, 10 µL
of the DNA solution was transferred. The final concentrations of PARP1 and DNA were 0.02 nM and 0.8 nM, respectively.
1.1.9. Washing: After the reaction was completed, the reaction solution was discarded, and the plate was washed 3 times with the PBST solution according to the method in step 2. Finally, the reaction plate was patted dry.
1.1.10. A primary antibody (anti-Poly/Mono-ADP Ribose Rabbit mAb) was diluted 2000-fold with the blocking buffer and then added at 20 µL/well.
1.1.11. Washing: The primary antibody was discarded, and the plate was washed 3 times with the PBST solution according to the method in step 2. Finally, the reaction plate was patted dry.
1.1.12. A secondary antibody (anti-rabbit IgG, HRP-linked Antibody) was diluted 2000-fold with the blocking buffer and then added at 20 µL/well.
1.1.13. Washing: The secondary antibody was discarded, and the plate was washed 3 times with the PBST solution according to the method in step 2. Finally, the reaction plate was patted dry.
1.1.14. Color development: Femto-ECL Substrate A and Femto-ECL Substrate B were mixed at a ratio of 1:1, and the mixture was transferred to the 384-well reaction plate at 25 µL/well. 1.1.15. Reading: The chemiluminescence values (RLU) were measured using Envision.

T1 sequence (P09874 whole entry): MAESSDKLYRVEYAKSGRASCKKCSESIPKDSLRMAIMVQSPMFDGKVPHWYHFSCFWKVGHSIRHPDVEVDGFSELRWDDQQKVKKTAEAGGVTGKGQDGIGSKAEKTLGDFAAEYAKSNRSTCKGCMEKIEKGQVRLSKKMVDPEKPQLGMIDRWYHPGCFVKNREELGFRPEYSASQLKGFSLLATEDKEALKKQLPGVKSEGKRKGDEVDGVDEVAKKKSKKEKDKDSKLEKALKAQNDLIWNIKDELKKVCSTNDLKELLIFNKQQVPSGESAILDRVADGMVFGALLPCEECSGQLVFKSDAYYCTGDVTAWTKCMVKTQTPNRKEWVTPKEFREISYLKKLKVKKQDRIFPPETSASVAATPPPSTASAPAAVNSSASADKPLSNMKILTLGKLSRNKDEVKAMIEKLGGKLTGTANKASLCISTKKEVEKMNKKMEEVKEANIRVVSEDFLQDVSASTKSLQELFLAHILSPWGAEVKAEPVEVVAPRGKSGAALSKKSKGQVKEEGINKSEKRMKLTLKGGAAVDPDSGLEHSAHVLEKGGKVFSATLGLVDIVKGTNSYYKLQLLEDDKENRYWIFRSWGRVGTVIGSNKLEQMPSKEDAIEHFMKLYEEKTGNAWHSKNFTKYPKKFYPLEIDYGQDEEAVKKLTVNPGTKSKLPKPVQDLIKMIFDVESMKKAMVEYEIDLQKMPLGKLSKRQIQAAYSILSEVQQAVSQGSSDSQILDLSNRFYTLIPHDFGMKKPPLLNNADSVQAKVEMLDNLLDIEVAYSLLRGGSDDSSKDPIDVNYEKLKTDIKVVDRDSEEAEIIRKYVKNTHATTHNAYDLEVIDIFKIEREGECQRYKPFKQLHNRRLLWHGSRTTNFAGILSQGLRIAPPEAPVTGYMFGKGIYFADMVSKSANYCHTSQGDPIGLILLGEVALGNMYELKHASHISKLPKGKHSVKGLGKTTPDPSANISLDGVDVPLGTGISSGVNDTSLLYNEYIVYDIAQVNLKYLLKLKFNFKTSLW

Compound | IC50 [nM]
CCc1cc2c([nH]c1=O)CC(CN1CC=C(c3ccc(C(=O)NC)nc3)CC1)CC2 (centres unmarked) [Compound 23, 1'-((3-Ethyl-2-oxo-1,2,5,6,7,8-hexahydroquinoline-7-yl)methyl)-N-methyl-1',2',3',6'-tetrahydro-[3,4'-bipyridine]-6-carboxamide] | ≤ 50
[2H]C([2H])([2H])NC(=O)c1ccc(N2CCN(CC3CCc4cc(CC)c(=O)[nH]c4C3)CC2)c(F)n1 (centres unmarked) [Compound 19, 5-(4-((3-Ethyl-2-oxo-1,2,5,6 ,7,8-hexahydroquinoline-7-yl)methyl)piperazin-1-yl)-6-fl uoro-N-(methyl-d3)picolinamide] | ≤ 50
CCc1cc2c([nH]c1=O)CC(CN1CCN(c3ccc(C(=O)NC)nc3F)C[C@H]1C)OC2 (stereo partly drawn) [Example 75, 5-((3R)-4-((3-Ethyl-2-oxo-1,5,7,8-tetrahydro-2H-pyrano[4,3-b]pyridin-7-yl)methyl)-3-methylpiperazin-1-yl)-6-fluoro-N-methylpicolinamide] | 50 to 500
[2H]C([2H])([2H])NC(=O)c1ccc(N2CCN(CC3CCc4cc(CC)c(=O)[nH]c4C3)CC2)cn1 (centres unmarked) [Compound 18, 5-(4-((3-Ethyl-2-oxo-1,2,5,6 ,7,8-hexahydroquinoline-7-yl)methyl)piperazin-1-yl)-N-(methyl-d3)picolinamide] | ≤ 50
CCc1cc2c([nH]c1=O)CC(CN1CCN(c3ccc(C(=O)NCC(F)F)nc3F)CC1)CC2 (centres unmarked) [Compound 22, N-(2,2-Difluoroethyl)-5-(4-( (3-ethyl-2-oxo-1,2,5,6,7,8-hexahydroquinoline-7-yl)methyl)piperazin-1-yl)-6-fluoro picolinamide] | ≤ 50
CCc1cc2c([nH]c1=O)CC(CN1CC=C(c3ccc(C(=O)NC4CC4)nc3)CC1)CC2 (centres unmarked) [Compound 28, N-Cyclopropyl-1'-((3-ethyl-2-oxo-1,2,5,6,7,8-hexahydroquinoline-7-yl)methyl)-1',2', 3',6'-tetrahydro-[3,4'-bipyridine]-6-carboxamide] | ≤ 50
CCc1cc2c([nH]c1=O)CC(CN1CC=C(c3ccc(C(=O)NC4CC4)nc3)CC1)OC2 (centres unmarked) [Compound 8, N-Cyclopropyl-1'-((3-ethyl-2-oxo-1,5,7,8-tetrahydro-2H -pyrano[4,3-b]pyridin-7-yl)methyl)-1',2',3',6'-tetrahydro-[3,4'-bipyridine]-6-carboxamide] | ≤ 50
CCc1nc2c([nH]c1=O)C[C@@H](CN1CCN3c4ccc(C(=O)NC)nc4COC[C@H]3C1)CC2 [Example 105] | ≤ 50
[2H]C([2H])([2H])NC(=O)c1ccc(C2=CCN(CC3CCc4cc(CC)c(=O)[nH]c4C3)CC2)c(F)n1 (centres unmarked) [Compound 27, 1'-((3-Ethyl-2-oxo-1,2,5,6,7,8-hexahydroquinoline-7-yl)methyl)-2-fluoro-N-(methyl-d3)-1',2',3',6'-tetrahydro-[3,4' -bipyridine]-6-carboxamide] | ≤ 50
CNC(=O)c1ccc(N2CCN(C[C@@H]3Cc4[nH]c(=O)c(C)cc4CO3)CC2)c(Cl)n1 [Example 94, (S)-6-Chloro-N-methyl-5-(4-((3-methyl-2-oxo-1,5,7,8-tetrahydro-2H-pyrano[4,3-b]pyridin-7-yl)methyl)piperazin-1-yl)picolinamide] | ≤ 50
CCc1cc2c([nH]c1=O)CC(CN1CCN(c3ccc(C(=O)NC)nc3F)C[C@@H]1C)OC2 (stereo partly drawn) [Example 72, 5-((3S)-4-((3-Ethyl-2-oxo-1,5,7,8-tetrahydro-2H-pyrano[4,3-b]pyridin-7-yl)methyl)-3-methylpiperazin-1-yl)-6-fluoro-N-methylpicolinamide] | 50 to 500
CCc1cc2c([nH]c1=O)CC(CN1CC=C(c3ccc(C(=O)NC)nc3C)CC1)CC2 (centres unmarked) [Compound 25, 1'-((3-Ethyl-2-oxo-1,2,5,6,7,8-hexahydroquinoline-7-yl)methyl)-N,2-dimethyl-1',2',3 ',6'-tetrahydro-[3,4'-bipyridine]-6-carboxamide] | ≤ 50
CCc1cc2c([nH]c1=O)CC(CN1CCN(c3ccc(C(=O)NC4CC4)nc3F)CC1)CC2 (centres unmarked) [Compound 21, N-Cyclopropyl-5-(4-((3-ethyl-2-oxo-1,2,5,6,7,8-hexahydroquinoline-7-yl)methyl)piperazin-1-yl)-6-fluoropicoli namide] | ≤ 50
CCc1cc2c([nH]c1=O)CC(CN1CCN(c3ccc(C(=O)NC)nc3)CC1)CC2 (centres unmarked) [Compound 15, 5-(4-((3-Ethyl-2-oxo-1,2,5,6 ,7,8-hexahydroquinoline-7-yl)methyl)piperazin-1-yl)-N-methylpicolinamide] | ≤ 50
CCc1cc2c([nH]c1=O)CC(CN1CCN(c3ccc(C(=O)NC4CC4)nc3)CC1)CC2 (centres unmarked) [Compound 20, N-Cyclopropyl-5-(4-((3-ethyl-2-oxo-1,2,5,6,7,8-hexahydroquinoline-7-yl)methyl)piperazin-1-yl)picolinamide] | ≤ 50
CCc1cc2c([nH]c1=O)CC(CN1CCN(c3ccc(C(=O)NC)nc3C)CC1)CC2 (centres unmarked) [Compound 17, 5-(4-((3-Ethyl-2-oxo-1,2,5,6 ,7,8-hexahydroquinoline-7-yl)methyl)piperazin-1-yl)-N,6-dimethylpicolinamide] | ≤ 50
CCc1cc2c([nH]c1=O)CC(CN1CC=C(c3ccc(C(=O)NCC(F)F)nc3F)CC1)CC2 (centres unmarked) [Compound 30, N-(2,2-Difluoroethyl)-1'-((3-ethyl-2-oxo-1,2,5,6,7,8-hexahydroquinoline-7-yl)methyl)-2-fluoro-1',2',3',6'-tetrahy dro-[3,4'-bipyridine]-6-carb oxamide] | ≤ 50
CCc1cc2c([nH]c1=O)CC(CN1CC=C(c3ccc(C(=O)NC)nc3F)CC1)CC2 (centres unmarked) [Compound 24, 1'-((3-Ethyl-2-oxo-1,2,5,6,7,8-hexahydroquinoline-7-yl)methyl)-2-fluoro-N-methyl-1',2',3',6'-tetrahydro-[3,4'-bipyridine]-6-carboxamide] | ≤ 50
CCc1cc2c([nH]c1=O)CC(CN1CCN(c3ccc(C(=O)NC)nc3F)CC1)CC2 (centres unmarked) [Compound 16, 5-(4-((3-Ethyl-2-oxo-1,2,5,6 ,7,8-hexahydroquinoline-7-yl)methyl)piperazin-1-yl)-6-fl uoro-N-methylpicolinamide] | ≤ 50
[2H]C([2H])([2H])NC(=O)c1ccc(C2=CCN(CC3CCc4cc(CC)c(=O)[nH]c4C3)CC2)cn1 (centres unmarked) [Compound 26, 1'-((3-Ethyl-2-oxo-1,2,5,6,7,8-hexahydroquinoline-7-yl)methyl)-N-(methyl-d3)-1',2', 3',6'-tetrahydro-[3,4'-bipyridine]-6-carboxamide] | ≤ 50
CCc1cc2c([nH]c1=O)CC(CN1CC=C(c3ccc(C(=O)NC4CC4)nc3F)CC1)OC2 (centres unmarked) [Compound 7, N-Cyclopropyl-1'-((3-ethyl-2-oxo-1,5,7,8-tetrahydro-2H -pyrano[4,3-b]pyridin-7-yl)methyl)-2-fluoro-1',2',3',6'-tetrahydro-[3,4'-bipyridine]-6-carboxamide] | ≤ 50
CCc1cc2c([nH]c1=O)CC(CN1CC=C(c3ccc(C(=O)NC4CC4)nc3F)CC1)CC2 (centres unmarked) [Compound 29, N-Cyclopropyl-1'-((3-ethyl-2-oxo-1,2,5,6,7,8-hexahydroquinoline-7-yl)methyl)-2-flu oro-1',2',3',6'-tetrahydro-[3,4 '-bipyridine]-6-carboxamide] | ≤ 50

Each molecule was assayed on BRCA wild-type DLD-1 cells (assay: Anti-proliferative activity against cells (CCK8): DLD-1). Conditions: Homo sapiens, 72 h + 96 h culture.
Format: cell-based
Procedure: BRCA wild-type DLD-1 cells were cultured in an RPMI-1640 medium containing 10% fetal bovine serum, 100 U/mL penicillin, and 100 µg/mL streptomycin, and incubated in an incubator with 5% saturated CO2 at 37 °C. When the cells grew to 80% confluence, they were collected, centrifuged at 300 g for 10 min, and then plated onto a 96-well plate at 1000 cells/well. After 24 h, different final concentrations (0 µM, 1 µM, and 10 µM) of PARPi were added, and the cells were cultured for another 72 h. The cells were subjected to medium exchange treatment (re-supplemented with PARPi at the same final concentrations) and then cultured for another 96 h. The 96-well plate was taken out.

Compound | IC50 [nM]
[2H]C([2H])([2H])NC(=O)c1ccc(N2CCN(C([2H])([2H])[C@H]3CCc4nc(C)c(=O)[nH]c4C3)CC2)c(F)n1 [Example 84, (S)-6-Fluoro-N-(methyl-d3)-5-(4-((2-methyl-3-oxo-3,4,5,6,7,8-hexahydroquinoxalin-6-yl)methyl-d2)piperazin-1-yl)picolinamide] | > 1000
